The source of these data is ChEMBL document CHEMBL5046255, “Design and synthesis of dual inhibitors targeting snail and histone deacetylase for the treatment of solid tumour cancer” (Eur J Med Chem, 2022).

The pIC50 is −log10 of the IC50, conventionally taken in molar units. Usually pKd stands for the negative decadic logarithm of the Kd, by convention in mol/L. By half-life is commonly meant how long it takes for the measured level to halve.

SMILES strings stand for the structures. pIC50, pKd: −log10 of the molar value. Bounds are passed on as bounds.

Data set [1] relates to HCT-116. Kind of data set: Antiproliferative activity against human HCT-116 cells assessed as cell viability at 1 uM incubated for 72 hrs by luminescence assay. Type of data set: functional, cell-based. Conditions: for viability at 1 µM: HCT-116, dose 1 µM, time 72 hrs, read-out: Activity; for pIC50: HCT-116, 72 h.
A further data set concerns the target Histone deacetylase 1 (Homo sapiens, UniProt Q13547). Kind of data set: Inhibition of HDAC1 (unknown origin) using p53 (379 to 382 residues) (RHKK(Ac-AMC) as fluorogenic substrate incubated for 1 hrs by fluorescence based assay.
Data set [2] in a line: Binding affinity to SNAI1 (unknown origin) assessed as dissociation constant. The arrangement: species or system Homo sapiens.
The nature of data set [3]: Metabolic stability in dog plasma assessed as parent compound remaining at 100 uM measured after 2 hrs by LC-MS/MS analysis. The data set is classed as ADME, cell-free, Canis lupus familiaris. The settings on record: read-out: Stability.
Data set [4] in a line: Metabolic stability in rat liver microsomes assessed as half life incubated for 10 mins by LC-MS/MS analysis. The data set is classed as ADME, Microsome. On the technique in general: Liver microsomes are a subcellular fraction often used to study metabolism.
The nature of data set [5]: Metabolic stability in monkey liver microsomes assessed as half life incubated for 10 mins by LC-MS/MS analysis. The data set is classed as ADME, Macaca mulatta, Microsome. Conditions: rhesus monkey.
The nature of data set [6]: Metabolic stability in rat plasma assessed as half life at 100 uM measured upto 120 mins by LC-MS/MS analysis. The data set is classed as ADME, cell-free.
Data set [7] can be described thus: Metabolic stability in monkey liver microsomes assessed as intrinsic clearance incubated for 10 mins by LC-MS/MS analysis. Type of data set: ADME, Macaca mulatta, Microsome. The settings on record: rhesus monkey, read-out: CLH.
The nature of data set [8]: Metabolic stability in dog liver microsomes assessed as half life incubated for 10 mins by LC-MS/MS analysis. The data set is classed as ADME, Canis lupus familiaris, Microsome.
Data set [9] can be described thus: Metabolic stability in human liver microsomes assessed as intrinsic clearance incubated for 10 mins by LC-MS/MS analysis. Type of data set: ADME, Microsome. The settings on record: read-out: CLH.
A short description of data set [10]: Metabolic stability in dog plasma assessed as half life at 100 uM measured upto 120 mins by LC-MS/MS analysis. Type of data set: ADME, cell-free, Canis lupus familiaris.
A short description of data set [11]: Metabolic stability in human plasma assessed as parent compound remaining at 100 uM measured after 2 hrs by LC-MS/MS analysis. The data set is classed as ADME, cell-free. Conditions: read-out: Stability.
Data set [12] in a line: Metabolic stability in dog liver microsomes assessed as intrinsic clearance incubated for 10 mins by LC-MS/MS analysis. Type of data set: ADME, Canis lupus familiaris, Microsome. Conditions: read-out: CLH.
A short description of data set [13]: Metabolic stability in rat liver microsomes assessed as intrinsic clearance incubated for 10 mins by LC-MS/MS analysis. The data set is classed as ADME, Microsome. The settings on record: read-out: CLH.
Data set [14] is described as follows: Metabolic stability in rat plasma assessed as parent compound remaining at 100 uM measured after 2 hrs by LC-MS/MS analysis. The data set is classed as ADME, cell-free. The settings on record: read-out: Stability.
Data set [15] can be described thus: Metabolic stability in monkey plasma assessed as parent compound remaining at 100 uM measured after 2 hrs by LC-MS/MS analysis. The data set is classed as ADME, cell-free, Macaca mulatta. Conditions: rhesus monkey, read-out: Stability.
Data set [16] in a line: Metabolic stability in human liver microsomes assessed as half life incubated for 10 mins by LC-MS/MS analysis. The data set is classed as ADME, Microsome.
The subject of data set [17] is HCT-116. Kind of data set: Antiproliferative activity against human HCT-116 cells assessed as reduction in cell viability incubated for 72 hrs by luminescence assay. Type of data set: functional, cell-based. The settings on record: HCT-116, 72 h.

Histone deacetylase 1, sequence (Q13547 whole entry, the tested form may be a part): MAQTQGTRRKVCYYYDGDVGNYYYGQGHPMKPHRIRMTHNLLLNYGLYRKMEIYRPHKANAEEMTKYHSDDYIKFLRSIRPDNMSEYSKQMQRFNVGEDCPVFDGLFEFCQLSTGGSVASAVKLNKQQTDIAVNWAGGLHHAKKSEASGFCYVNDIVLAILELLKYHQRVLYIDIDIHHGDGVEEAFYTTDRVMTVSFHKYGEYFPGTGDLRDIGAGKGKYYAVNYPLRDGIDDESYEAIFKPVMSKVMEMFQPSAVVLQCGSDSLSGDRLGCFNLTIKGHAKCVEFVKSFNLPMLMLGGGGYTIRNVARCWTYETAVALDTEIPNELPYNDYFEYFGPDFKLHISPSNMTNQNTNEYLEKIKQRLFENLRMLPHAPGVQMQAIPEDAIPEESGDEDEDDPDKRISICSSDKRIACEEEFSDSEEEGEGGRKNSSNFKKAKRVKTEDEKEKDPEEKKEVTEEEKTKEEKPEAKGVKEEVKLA

Consider `CC(C)(C)c1cc(Nc2nc(SCc3ccc(C(=O)Nc4ccccc4N)cc3)nn3cccc23)n[nH]1`, for which the viability at 1 µM in the data set on HCT-116 [1] is 96.1%. Further, on Histone deacetylase 1, the pIC50 was 6.62.

On to `COc1ccc(CNc2nc(SCc3ccc(C(=O)Nc4ccccc4N)cc3)nn3cccc23)cc1OC`, for which the viability at 1 µM with HCT-116 [1] is 73.9%. On Histone deacetylase 1, the pIC50 is 6.39.

With `COc1ccc(CNc2nc(SCc3ccc(C(=O)Nc4ccccc4N)cc3)nn3cccc23)cc1`, the pIC50 was 6.53 in the data set on HCT-116 [1] and 6.41 on Histone deacetylase 1. Further, the pKd in data set [2] was 6.45.

Turning to `Nc1ccccc1NC(=O)c1ccc(CSc2nc(NCc3ccc(F)cc3)c3cccn3n2)cc1`, the viability at 1 µM in the data set with HCT-116 [1] amounted to 83.1%. The compound further showed a pIC50 against Histone deacetylase 1 of 6.32.

In the case of `Nc1cc(F)ccc1NC(=O)c1ccc(CSc2nc(NCc3ccc(F)cc3)c3cccn3n2)cc1`, the viability at 1 µM in the data set with HCT-116 [1] was 89.3%. The compound also showed a pIC50 at Histone deacetylase 1 below 5.00.

`CC(C)(C)c1cc(Nc2nc(SCc3ccc(C(=O)Nc4ccc(F)cc4N)cc3)nn3cccc23)n[nH]1`: in the data set on HCT-116 [1], the viability at 1 µM amounted to 108%. Moreover, the negative logarithm of the IC50 (pIC50) at Histone deacetylase 1 is 5.81.

Turning to `Cc1cc(Nc2nc(SCc3ccc(C(=O)Nc4ccccc4N)cc3)nn3cccc23)n[nH]1`, the pIC50 in the data set on HCT-116 [1] is 6.02; against Histone deacetylase 1, 6.82. Besides, the pKd in [2] is 6.25.

Take `CC(C)(C)OC(=O)N1CCC(Nc2nc(SCc3ccc(C(=O)Nc4ccccc4N)cc3)nn3cccc23)CC1`: the viability at 1 µM with HCT-116 [1] worked out at 103%. The compound also gave a pIC50 against Histone deacetylase 1 of 6.06.

With `Nc1cc(F)ccc1NC(=O)c1ccc(CSc2nc(N3CCOCC3)c3cccn3n2)cc1`, the results for the pIC50 with HCT-116 [1] and on Histone deacetylase 1 were 6.02 and 5.64, respectively. In addition, the pKd in [2] is 6.12.

For the compound `Nc1ccccc1NC(=O)c1ccc(CSc2nc(NC3CCNCC3)c3cccn3n2)cc1`, in the data set on HCT-116 [1], the viability at 1 µM was found to be 78.5%. For the same compound, at Histone deacetylase 1, the pIC50 was 6.31.

Turning to `CC(C)(C)OC(=O)N1CCC(Nc2nc(SCc3ccc(C(=O)Nc4ccc(F)cc4N)cc3)nn3cccc23)CC1`, the viability at 1 µM with HCT-116 [1] worked out at 105%. The pIC50 at Histone deacetylase 1 is 5.35.

With `COc1ccc(CNc2nc(SCc3ccc(C(=O)Nc4ccc(F)cc4N)cc3)nn3cccc23)cc1OC`, in the data set on HCT-116 [1], the viability at 1 µM was 73.9%. For the same compound, the pIC50 on Histone deacetylase 1 is 5.09.

For `Nc1cc(F)ccc1NC(=O)c1ccc(CNC(=O)/C=C/c2cccnc2)cc1` [TUCIDINOSTAT], the pIC50 in the data set on HCT-116 [1] was 5.68. The remaining at 2 h, 100 µM in [3] was found to be 103%; in data set [11], 109%; in data set [14], 82.1%; in [15], 102%. The half-life is 190 min in data set [4], 123 min in data set [5], 502 min in data set [8] and 376 min in data set [16]. Moreover, the half-life at 100 µM amounted to 530 min in [6] and 980 min in data set [10]. The microsomal CLint in data set [7] is 11.2 µL/min/mg; in data set [9], 4.18 µL/min/mg; in data set [12], 2.76 µL/min/mg; in [13], 7.35 µL/min/mg. In [2], the pKd was below 5.00.

For the compound `Nc1ccccc1NC(=O)c1ccc(CSc2nc(Nc3cc[nH]n3)c3cccn3n2)cc1`, in the data set with HCT-116 [1], the viability at 1 µM is 60.3%. The pIC50 on Histone deacetylase 1 is 6.83; in the data set with HCT-116 [17], 5.81. The pKd in [2] was 6.01.

Take `Nc1cc(F)ccc1NC(=O)c1ccc(CSc2nc(Nc3cc[nH]n3)c3cccn3n2)cc1`: the pIC50 with HCT-116 [1] was 6.14; against Histone deacetylase 1, 6.23. Further, the pKd in data set [2] was 6.37.

Turning to `Cc1cccnc1Nc1nc(SCc2ccc(C(=O)Nc3ccccc3N)cc2)nn2cccc12`, the pIC50 in the data set on HCT-116 [1] is 5.86; at Histone deacetylase 1, 6.69. Besides, in [2], the pKd is 6.02.

`Nc1cc(F)ccc1NC(=O)c1ccc(CSc2nc(NCc3ccc(C(F)(F)F)cc3)c3cccn3n2)cc1`: the viability at 1 µM in the data set with HCT-116 [1] was determined as 107%. Further, on Histone deacetylase 1, the pIC50 was below 5.00.

As to `Nc1ccccc1NC(=O)c1ccc(CSc2nc(N3CCOCC3)c3cccn3n2)cc1`, the pIC50 with HCT-116 [1] was 5.96; on Histone deacetylase 1, 6.69. The pKd in data set [2] was 6.04.

For `COc1ccc(CNc2nc(SCc3ccc(C(=O)Nc4ccccc4N)cc3)nn3cccc23)c(OC)c1`, the viability at 1 µM in the data set on HCT-116 [1] was 92.5%. The same compound gave a pIC50 at Histone deacetylase 1 of 6.47.

In the case of `Nc1ccccc1NC(=O)c1ccc(CSc2nc(NCc3ccc(C(F)(F)F)cc3)c3cccn3n2)cc1`, the viability at 1 µM in the data set with HCT-116 [1] is 102%. Also, at Histone deacetylase 1, the negative logarithm of the IC50 (pIC50) was 5.76.

Turning to `COc1ccc(CNc2nc(SCc3ccc(C(=O)Nc4ccc(F)cc4N)cc3)nn3cccc23)c(OC)c1`, in the data set on HCT-116 [1], the viability at 1 µM turned out to be 92.5%. Also, the pIC50 against Histone deacetylase 1 is below 5.00.

`Cc1cccnc1Nc1nc(SCc2ccc(C(=O)Nc3ccc(F)cc3N)cc2)nn2cccc12`: the pIC50 is 6.07 with HCT-116 [1] and 5.88 against Histone deacetylase 1. The pKd in data set [2] is 6.06.

In the case of `COc1ccc(CNc2nc(SCc3ccc(C(=O)Nc4ccc(F)cc4N)cc3)nn3cccc23)cc1`, the results for the pIC50 in the data set on HCT-116 [1] and at Histone deacetylase 1 were 6.00 and 5.30, respectively. The pKd in data set [2] was 6.29.

With `Nc1cc(F)ccc1NC(=O)c1ccc(CSc2nc(NC3CCNCC3)c3cccn3n2)cc1`, the viability at 1 µM in the data set with HCT-116 [1] came to 95.8%. The pIC50 at Histone deacetylase 1 was 5.63.
